Laboratory results published in ChEMBL document CHEMBL1153537, “Structure-activity relationship and molecular mechanisms of ethyl 2-amino-4-(2-ethoxy-2-oxoethyl)-6-phenyl-4h-chromene-3-carboxylate (sha 14-1) and its analogues” (J Med Chem, 2009).
Values after ≈ are worked out from the molar mass of the structure shown. Active and inactive are the calls of the source. The rule behind the calls is not given here.

Experiments:
Jurkat = experiment: Cytotoxicity against human Jurkat cells after 48 hrs by cell titer-blue assay; format: functional, cell-based
HL-60 [1] = experiment: Ratio of GI50 for human HL60/MX2 cells to GI50 for human HL60 cells; format: functional
[2] = Cytotoxicity against human HL60/MX2 cells after 48 hrs by cell titer-blue assay; format: functional, cell-based; settings: HL60/MX2, 48 h
HL-60 [3] = experiment: Cytotoxicity against human HL60 cells after 48 hrs by cell titer-blue assay; format: functional, cell-based; settings: HL-60, 48 h
CCRF-CEM [4] = experiment: Cytotoxicity against human CCRF-CEM cells after 48 hrs by cell titer-blue assay; format: functional, cell-based
[5] = Cytotoxicity against human CCRF-CEM/C2 cells after 48 hrs by cell titer-blue assay; format: functional, cell-based
CCRF-CEM [6] = experiment: Ratio of GI50 for human CCRF-CEM/C2 cells to GI50 for human CCRF-CEM cells; format: functional
REH = experiment: Cytotoxicity against human REH cells after 48 hrs by cell titer-blue assay; format: functional, cell-based
[7] = Cytotoxicity against mouse Hepa-1c1c7 cells after 48 hrs by cell titer-blue assay; format: functional, cell-based; settings: Hepa-1c1c7, 48 h
NALM-6 [8] = experiment: Induction of apoptosis in human NALM6 cells assessed as PARP cleavage at 50 uM after 24 hrs; format: functional, cell-based
HCT-116 = experiment: Cytotoxicity against human HCT116 cells after 48 hrs by cell titer-blue assay; format: functional, cell-based; settings: HCT-116, 48 h
DU-145 = experiment: Cytotoxicity against human DU145 cells after 48 hrs by cell titer-blue assay; format: functional, cell-based; settings: DU-145, 48 h
Bcl-2-like protein 1 = Bcl-2-like protein 1 (Homo sapiens, UniProt Q07817); experiment: Inhibition of recombinant His6-tagged Bcl-XL expressed in Escherichia coli BL21 (DE3) and Flu-Bak peptide interaction by fluorescence polarization assay
Chain of Bcl-2-like protein 1 (Q07817 whole entry): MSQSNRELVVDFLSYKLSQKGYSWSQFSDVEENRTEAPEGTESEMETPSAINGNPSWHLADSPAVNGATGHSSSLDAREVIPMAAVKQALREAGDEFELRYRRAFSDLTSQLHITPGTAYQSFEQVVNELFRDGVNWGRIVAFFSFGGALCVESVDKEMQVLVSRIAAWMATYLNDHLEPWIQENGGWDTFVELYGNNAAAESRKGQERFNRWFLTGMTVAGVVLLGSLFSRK

MCF7 = experiment: Cytotoxicity against human MCF7 cells after 48 hrs by cell titer-blue assay; format: functional, cell-based; settings: MCF7, 48 h
[9] = Cytotoxicity against human SU-8686 cells after 48 hrs by cell titer-blue assay; format: functional, cell-based; settings: SU.86.86, 48 h
NALM-6 [10] = experiment: Induction of apoptosis in human NALM6 cells assessed as caspase 3/7 activation at 0.4 to 100 uM after 24 hrs by fluorescence assay; format: functional, cell-based
NALM-6 [11] = experiment: Cytotoxicity against human NALM6 cells after 48 hrs by cell titer-blue assay; format: functional, cell-based
NCI-H460 = experiment: Cytotoxicity against human H460 cells after 48 hrs by cell titer-blue assay; format: functional, cell-based; settings: NCI-H460, 48 h
[12] = target: Induced myeloid leukemia cell differentiation protein Mcl-1 (Homo sapiens, UniProt Q07820); experiment: Inhibition of recombinant His6-tagged MCL1 (171-326) expressed in Escherichia coli BL21 (DE3) and Flu-Bak peptide interaction by fluorescence polarization assay
Chain of Induced myeloid leukemia cell differentiation protein Mcl-1 (Q07820 whole entry): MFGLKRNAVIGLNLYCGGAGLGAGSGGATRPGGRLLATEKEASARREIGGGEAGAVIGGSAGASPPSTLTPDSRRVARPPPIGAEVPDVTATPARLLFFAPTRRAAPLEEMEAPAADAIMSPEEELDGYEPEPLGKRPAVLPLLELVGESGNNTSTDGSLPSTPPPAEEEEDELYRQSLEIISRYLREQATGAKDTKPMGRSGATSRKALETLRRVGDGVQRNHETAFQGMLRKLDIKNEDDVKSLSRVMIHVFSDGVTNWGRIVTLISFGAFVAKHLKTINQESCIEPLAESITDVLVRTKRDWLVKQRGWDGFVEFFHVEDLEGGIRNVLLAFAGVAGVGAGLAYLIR

NALM-6 [13] = experiment: Induction of apoptosis in human NALM6 cells assessed as PARP cleavage at 3.125 to 25 uM after 24 hrs; format: functional, cell-based
[14] = Homo sapiens, REH, 48 h, read-out: IC50
[15] = Homo sapiens, NALM-6, 48 h, read-out: IC50

CCOC(=O)C1=C(N)Oc2ccc(-c3ccccc3)cc2C1CC(=O)N1CCOCC1 (centres undefined)
IC50 (Jurkat): > 100 µM

CCOC(=O)CC1C(C(=O)OCC)=C(N(C(C)=O)C(C)=O)Oc2ccc(-c3ccccc3)cc21 (centres undefined)
IC50 (Jurkat): 70.6 µM

CCOC(=O)CC1C(C(=O)OCC)=C(N)Oc2ccc(-c3ccc4ccccc4c3)cc21 (centres undefined)
IC50 (Jurkat): 18.7 µM

CCOC(=O)CC1C(C(=O)OCC)=C(N)Oc2cc(-c3ccccc3)ccc21 (centres undefined)
IC50 (Jurkat): 51.6 µM

CCOC(=O)CC1C(C(=O)OCC)=C(N)Oc2ccc(Br)cc21 (centres undefined)
IC50 (Jurkat): 57.3 µM

CCCc1ccc2c(c1)C(CC(=O)OCC)C(C(=O)OCC)=C(N)O2 (centres undefined)
IC50 (Jurkat): 57.3 µM

O=C1c2c(O)ccc(O)c2C(=O)c2c(NCCNCCO)ccc(NCCNCCO)c21 [MITOXANTRONE]
RatioGI50 (HL-60 [1]): 23
GI50 [2]: 4.42 µg/mL (≈ 9.94 µM)
GI50 (HL-60 [3]): 0.192 µg/mL (≈ 0.432 µM)

CC[C@]1(O)C[C@H]2CN(CCc3c([nH]c4ccccc34)[C@@](C(=O)OC)(c3cc4c(cc3OC)N(C=O)[C@H]3[C@@](O)(C(=O)OC)[C@H](OC(C)=O)[C@]5(CC)C=CCN6CC[C@]43[C@@H]65)C2)C1 [VINCRISTINE]
EC50 (CCRF-CEM [4]): 0.597 µM
EC50 [2]: 0.0609 µM
EC50 [5]: 0.367 µM

CCOC(=O)C1=C(N)Oc2ccc(-c3ccccc3)cc2C1CC(=O)N(CC)CC (centres undefined)
IC50 (Jurkat): 49.6 µM

CC[C@@]1(O)C(=O)OCc2c1cc1n(c2=O)Cc2cc3ccccc3nc2-1 [CAMPTOTHECIN]
GI50 [5]: 0.0432 µM
RatioGI50 (CCRF-CEM [6]): 1879

CC(C)OC(=O)CC1C(C(=O)OC(C)C)=C(N)Oc2ccc(-c3ccccc3)cc21 (centres undefined)
IC50 (Jurkat): 38.7 µM

CCOC(=O)CC1C(C(=O)OCC)=C(N)Oc2ccc(-c3ccccc3)cc21 (centres undefined)
IC50 (REH; [14]): 20.2 µM
IC50 [7]: 22.8 µM
Activity (NALM-6 [8]): inactive
IC50 (HCT-116): 18.5 µM
IC50 (DU-145): 14.7 µM
Ki (Bcl-2-like protein 1): 344 µM
IC50 (MCF7): 18.9 µM
IC50 [9]: 18.7 µM
Activity (NALM-6 [10]): Dose-dependent effect
IC50 (NALM-6 [11]; [15]): 44.2 µM
IC50 (NCI-H460): 15.5 µM

CCOC(=O)CC1C(C(=O)OCC)=C(N)Oc2ccc(-c3cccc4ccccc34)cc21 (centres undefined)
IC50 (Jurkat): 5.83 µM

CCOC(=O)CC1C(C(=O)OCC)=C(N)Oc2ccc(-c3ccc(C(C)(C)C)cc3)cc21 (centres undefined)
IC50 (Jurkat): 35.5 µM

CCOC(=O)CC1C(C(=O)OCC)=C(N)Oc2c(-c3ccccc3)cccc21 (centres undefined)
IC50 (Jurkat): 49.8 µM

CCOC(=O)CC1C(C(=O)OCC)=C(N)Oc2ccccc21 (centres undefined)
IC50 (Jurkat): 91.4 µM

Nc1nc2[nH]cnc2c(=S)[nH]1 [THIOGUANINE]
EC50 (CCRF-CEM [4]): 0.87 µM
EC50 [2]: 3.65 µM
EC50 (HL-60 [3]): 3.9 µM
EC50 [5]: 0.942 µM

CN(C)CC[C@H](CSc1ccccc1)Nc1ccc(S(=O)(=O)NC(=O)c2ccc(N3CCN(Cc4ccccc4-c4ccc(Cl)cc4)CC3)cc2)cc1[N+](=O)[O-] [ABT 737]
IC50 (REH; reh): Not Active
IC50 [7]: 8.68 µM
IC50 (HCT-116): 4.06 µM
IC50 (DU-145): 27.6 µM
IC50 (Jurkat): 1.38 µM
IC50 (MCF7): 21.3 µM
IC50 [9]: 4.24 µM
IC50 (NALM-6 [11]; nalm-6): Not Active
IC50 (NCI-H460): 8.03 µM

CCOC(=O)CC1C(C(=O)OCC)=C(N)Oc2ccc(-c3cc(O)cc(O)c3)cc21 (centres undefined)
IC50 (Jurkat): 18.3 µM

CCOC(=O)C1=C(N)Oc2ccc(-c3ccccc3)cc2C1CC(=O)N1CCNCC1 (centres undefined)
IC50 (Jurkat): 53.7 µM

Nc1ccn([C@@H]2O[C@H](CO)[C@@H](O)[C@@H]2O)c(=O)n1 [CYTARABINE]
EC50 (CCRF-CEM [4]): 0.00561 µM
EC50 [2]: 0.261 µM
EC50 (HL-60 [3]): 0.657 µM
EC50 [5]: 0.0228 µM

CCOC(=O)C1=C(N)Oc2ccc(-c3ccccc3)cc2C1CC(=O)N1CCCCC1 (centres undefined)
IC50 (Jurkat): 58.5 µM

CCOC(=O)CC1C(C#N)=C(N)Oc2ccc(-c3ccccc3)cc21 (centres undefined)
IC50 (Jurkat): 52.5 µM

COc1cccc2c1C(=O)c1c(O)c3c(c(O)c1C2=O)C[C@@](O)(C(=O)CO)C[C@@H]3O[C@H]1C[C@H](N)[C@H](O)[C@H](C)O1 [DOXORUBICIN]
EC50 (CCRF-CEM [4]): 0.465 µM
EC50 [2]: 8.05 µM
EC50 (HL-60 [3]): 1.51 µM
EC50 [5]: 3.08 µM

Cc1cc2c(C(C)C)c(O)c(O)c(C=O)c2c(O)c1-c1c(C)cc2c(C(C)C)c(O)c(O)c(C=O)c2c1O [GOSSYPOL]
Ki [12]: 6.54 µM

CCOC(=O)CC1C(C(=O)OCC)=C(NC(C)=O)Oc2ccc(-c3ccccc3)cc21 (centres undefined)
IC50 (Jurkat): 67.7 µM

CCOC(=O)CC1C(C(=O)OCC)=C(N)Oc2ccc(-c3cc(O)cc(OC)c3)cc21 (centres undefined)
IC50 (Jurkat): 4.2 µM

CCOC(=O)CC1C(C(=O)OCC)=C(N)Oc2ccc(-c3cc(OC)c(OC)c(OC)c3)cc21 (centres undefined)
IC50 (Jurkat): 13.6 µM

CCOC(=O)CC1C(C(=O)OCC)=C(N)Oc2cccc(-c3ccccc3)c21 (centres undefined)
IC50 (Jurkat): 44.3 µM

CCOC(=O)CC1C(C(=O)OCC)=C(N)Oc2ccc(-c3cc(OC)cc(OC)c3)cc21 (centres undefined)
IC50 (REH; [14]): 4.16 µM
IC50 [7]: 10.9 µM
IC50 (HCT-116): 8.83 µM
Activity (NALM-6 [13]): Dose-dependent effect
IC50 (DU-145): 11.5 µM
Ki [12]: 42000 µM
Ki (Bcl-2-like protein 1): 1240 µM
IC50 (Jurkat): 1.2 µM
IC50 (MCF7): 15.5 µM
IC50 [9]: 7.03 µM
Activity (NALM-6 [10]): Dose-dependent effect
IC50 (NALM-6 [11]; [15]): 4.74 µM
IC50 (NCI-H460): 5.14 µM
